Assay results from ChEMBL document CHEMBL1141009, “Synthesis of BODIPY-labeled alkylphosphocholines with leishmanicidal activity, as fluorescent analogues of miltefosine” (2008).

Tested on: Leishmania donovani
Assay: Antileishmanial activity against Leishmania donovani promastigotes
Format: functional
Settings: read-out: LD50 (the source's name)

Row | Structure (SMILES) | LC50 [µM]
1 | CCC1=C(C)C2=Cc3c(C)c(CCCCCCCCCCCOP(=O)([O-])OCC[N+](C)(C)C)c(C)n3[B-](F)(F)[N+]2=C1C | 4.3
2 | CC1=CC(C)=[N+]2C1=Cc1c(C)c(CCCCCCCCCCCOP(=O)([O-])OCC[N+](C)(C)C)c(C)n1[B-]2(F)F | 5.2
3 | CCCCCCCCCCCCCCCCOP(=O)([O-])OCC[N+](C)(C)C [MILTEFOSINE] | 6.5
